One series relates to Sphaerotheca fuliginea. Description: In vivo preventive test on Sphaerotheca fuliginea (cucumber), Example G. The settings on record: 10 ppm of active ingredient, evaluated 7 days after inoculation. The text has this:
After the spray coating has dried on, the plants are inoculated with an aqueous spore suspension of Sphaerotheca fuliginea.
The molecule `CC(c1cccc2c1CCC(C)(C)C2)N(C(=O)c1c(C(F)F)nn(C)c1F)C1CC1` (single isomer, unassigned) [Example 44a] yielded a disease control of 100%.
Still for that read-out and setting: the result for `CC(C)c1ccc(F)cc1CN(C(=O)c1c(C(F)F)nn(C)c1F)C1CC1` [Example 135] reads 100%.
Molecule `CCc1cccc(Cl)c1CN(C(=O)c1c(C(F)F)nn(C)c1F)C1CC1` [Example 124] registered a disease control of 100%.
In the case of `CC(C)Cc1ccc(Cl)cc1CN(C(=O)c1c(C(F)F)nn(C)c1F)C1CC1` [Example 120], the disease control worked out at 100%.
`CC(C)c1ccc(F)c(F)c1CN(C(=O)c1c(C(F)F)nn(C)c1F)C1CC1` [Example 136] returned a disease control of 100%.
On the same count and under the same terms, in the case of `Cn1nc(C(F)F)c(C(=O)N(Cc2cc(F)ccc2C2CC2)C2CC2)c1F` [Example 123] it was 100%; in that of `CC(C)Cc1cccc(F)c1CN(C(=O)c1c(C(F)F)nn(C)c1F)C1CC1` [Example 127], 100%.
On the same count and under the same terms, in the case of `CC(C)Cc1ccc(F)c(F)c1CN(C(=O)c1c(C(F)F)nn(C)c1F)C1CC1` [Example 112] it was 100%; in that of `Cn1nc(C(F)F)c(C(=O)N(Cc2c(Cl)cccc2C2CCCC2)C2CC2)c1F` [Example 141], 100%.
Take `Cn1nc(C(F)F)c(C(=O)N(Cc2c(Cl)cccc2[Si](C)(C)C)C2CC2)c1F` [Example 116]: the disease control is 100%.
`Cn1nc(C(F)F)c(C(=O)N(Cc2c(C(F)(F)F)ccc(F)c2C(F)(F)F)C2CC2)c1F` [Example 117] displayed a disease control of 100%.
`Cn1nc(C(F)F)c(C(=O)N(Cc2c(F)cccc2C2CC2)C2CC2)c1F` [Example 130] gave a disease control of 100%.
As for `CCCCc1cccc(F)c1CN(C(=O)c1c(C(F)F)nn(C)c1F)C1CC1` [Example 128], the disease control is reported as 100%.
The same measure, in the same setting: the result for `Cn1nc(C(F)F)c(C(=O)N(Cc2cc(F)ccc2[Si](C)(C)C)C2CC2)c1F` [Example 118] reads 100%; that for `CCCCc1ccc(F)cc1CN(C(=O)c1c(C(F)F)nn(C)c1F)C1CC1` [Example 121], 100%.
The same measure, in the same setting: in the case of `Cn1nc(C(F)F)c(C(=O)N(Cc2c(C3CCCC3)ccc(F)c2F)C2CC2)c1F` [Example 139] it was 100%; in that of `CC(C)c1ccccc1CN(C(=O)c1c(C(F)F)nn(C)c1F)C1CC1C` (centres unmarked) [Example 157], 100%; in that of `Cn1nc(C(F)F)c(C(=O)N(Cc2cc(F)ccc2C2CCCC2)C2CC2)c1F` [Example 138], 100%.

Test system in a further series: not listed separately
The series is described as follows: logP by HPLC on reversed-phase column (EEC Directive 79/831 Annex V.A8). The settings on record: HPLC on reversed-phase column (C 18), 40° C., 0.1% aqueous formic acid and acetonitrile, linear gradient 10% to 90% acetonitrile.
Molecule `CCC(C)c1ccccc1CN(C(=O)c1c(C(F)F)nn(C)c1F)C1CC1` (centres unmarked) [Example 156] had a logP of 4.06.
In the case of `Cn1nc(C(F)F)c(C(=O)N(Cc2c(Cl)cccc2[Si](C)(C)C)C2CC2)c1Cl` [Example 151], the logP was 4.82.
Same read-out and setting: in the case of `CCCCC1Cc2ccccc2C1N(C(=O)c1c(C(F)F)nn(C)c1F)C1CC1` (centres unmarked) [Example 100] it was 4.85.
Still for that read-out and setting: in the case of `CC(c1cc(Br)cc(Br)c1)N(C(=O)c1c(C(F)F)nn(C)c1F)C1CC1` (racemic) [Example 106] it was 4.26; in that of `CC(C)c1ccc(F)cc1CN(C(=O)c1c(C(F)F)nn(C)c1Cl)C1CC1` [Example 146], 3.92; in that of `Cn1nc(C(F)F)c(C(=O)N(Cc2cccc(C(F)(F)F)c2Cl)C2CC2)c1F` [Example 104], 3.64.
As for `Cc1cccc(C)c1CN(C(=O)c1c(C(F)F)nn(C)c1F)C1CC1` [Example 108], the logP stood at 3.31.
Still for that read-out and setting: in the case of `Cn1nc(C(F)F)c(C(=O)N(C2CC2)C2CCc3cccc(Cl)c32)c1F` (centres unmarked) [Example 109] it was 3.42; in that of `Cn1nc(C(F)F)c(C(=O)N(Cc2ccccc2Oc2ccc(F)cc2)C2CC2)c1F` [Example 110], 3.85; in that of `Cn1nc(C(F)F)c(C(=O)N(Cc2c(Cl)cc(Cl)cc2Cl)C2CC2)c1F` [Example 107], 3.99.
Same read-out and setting: the result for `Cn1nc(C(F)F)c(C(=O)N(Cc2ccccc2C2CC2C2CC2)C2CC2)c1F` (centres unmarked) [Example 155] reads 4.25; that for `CC(C)Cc1cccc(Cl)c1CN(C(=O)c1c(C(F)F)nn(C)c1Cl)C1CC1` [Example 150], 4.74.
`Cc1cccc2c1CCC2N(C(=O)c1c(C(F)F)nn(C)c1F)C1CC1` (racemic) [Example 102] came in with a logP of 3.55.
As for `Cn1nc(C(F)F)c(C(=O)N(Cc2cc(Cl)ccc2C2CCCC2)C2CC2)c1Cl` [Example 152], the logP is listed as 4.92.
On to `CC(c1cccc(I)c1)N(C(=O)c1c(C(F)F)nn(C)c1F)C1CC1` (centres unmarked) [Example 103], for which the logP stood at 3.76.
The same measure, in the same setting: the result for `CCc1ccccc1CN(C(=S)c1c(C(F)F)nn(C)c1F)C1CC1` [Example 133] reads 4.06.
Molecule `CC(C)CC(C)c1ccccc1CN(C(=O)c1c(C(F)F)nn(C)c1F)C1CC1` (centres unmarked) [Example 154] yielded a logP of 4.82.

Still in this series, the particulars now being: HPLC, reversed-phase column (C 18), 40° C., 0.1% aqueous formic acid and acetonitrile, linear gradient 10% to 90% acetonitrile.
Molecule `Cn1nc(C(F)F)c(C(=O)N(C2CC2)C2CC(C)(C)c3ccccc32)c1F` (centres unmarked) [Example 85] returned a logP of 3.87.
On the same count and under the same terms, the result for `CC(C)c1ccccc1CN(C(=O)c1c(C(F)F)nn(C)c1Cl)C1CC1` [Example 34] reads 3.81; that for `CCCCC(c1ccccc1)N(C(=O)c1c(C(F)F)nn(C)c1F)C1CC1` (centres unmarked) [Example 94], 4.26; that for `CC(c1cccc(C(F)(F)c2ccccc2)c1)N(C(=O)c1c(C(F)F)nn(C)c1F)C1CC1` (centres unmarked) [Example 78], 4.15.
The same measure, in the same setting: the result for `Cn1nc(C(F)F)c(C(=O)N(Cc2c(Cl)cccc2I)C2CC2)c1F` [Example 19] reads 3.58; that for `Cn1nc(C(F)F)c(C(=O)N(Cc2ccc(Cl)cc2Cl)C2CC2)c1Cl` [Example 59], 3.89; that for `Cn1nc(C(F)F)c(C(=O)N(Cc2c(Br)cccc2Br)C2CC2)c1F` [Example 92], 3.51.
Still for that read-out and setting: in the case of `CCC(c1cc(Cl)cc(Cl)c1)N(C(=O)c1c(C(F)F)nn(C)c1F)C1CC1` (centres unmarked) [Example 71] it was 4.41; in that of `CCc1cccc(CC)c1CN(C(=O)c1c(C(F)F)nn(C)c1F)C1CC1` [Example 88], 4.01; in that of `CC(c1ccccc1)N(C(=O)c1c(C(F)F)nn(C)c1F)C1CC1` (centres unmarked) [Example 95], 3.06.
As to `Cn1nc(C(F)F)c(C(=O)N(Cc2ncc(C(F)(F)F)cc2Cl)C2CC2)c1Cl` [Example 57], the logP is listed as 3.55.
Turning to `CC(C)Cc1cc(Cl)ccc1CN(C(=O)c1c(C(F)F)nn(C)c1F)C1CC1` [Example 31], the logP came to 4.59.
`CCCCC(c1ccc(C(F)(F)F)cc1)N(C(=O)c1c(C(F)F)nn(C)c1F)C1CC1` (centres unmarked) [Example 93] came in with a logP of 4.8.
Still for that read-out and setting: the result for `Cn1nc(C(F)F)c(C(=O)N(C2CC2)C2CCCc3cccc(Br)c32)c1F` (centres unmarked) [Example 97] reads 3.78; that for `Cn1nc(C(F)F)c(C(=O)N(Cc2ccccc2C(F)(F)F)C2CC2)c1Cl` [Example 56], 3.58; that for `CC(c1ccccc1C(F)(F)F)N(C(=O)c1c(C(F)F)nn(C)c1Cl)C1CC1` (centres unmarked) [Example 55], 3.64.
As to `CC(c1ncc(Cl)cc1Cl)N(C(=O)c1c(C(F)F)nn(C)c1Cl)C1CC1` (centres unmarked) [Example 58], the logP turned out to be 3.69. The logP values of the last two molecules are within 0.2 log units of each other.
Still for that read-out and setting: in the case of `CCC(c1ccc(Cl)cc1Cl)N(C(=O)c1c(C(F)F)nn(C)c1F)C1CC1` (centres unmarked) [Example 69] it was 4.2.
Consider `CC(c1ccccc1OC(F)(F)F)N(C(=O)c1c(C(F)F)nn(C)c1F)C1CC1` (centres unmarked) [Example 91], for which the logP is on record as 3.6.
As to `Cn1nc(C(F)F)c(C(=O)N(Cc2cc(Br)c3c(c2Br)OCO3)C2CC2)c1F` [Example 87], the logP stood at 3.44. The logP values of the last two molecules are within 0.2 log units of each other.
On the same count and under the same terms, the result for `CC(c1ccc(Oc2ccccc2)cc1)N(C(=O)c1c(C(F)F)nn(C)c1F)C1CC1` (centres unmarked) [Example 65] reads 4.14; that for `CC(c1ccc(Oc2ccccc2)cc1)N(C(=O)c1c(C(F)F)nn(C)c1Cl)C1CC1` (centres unmarked) [Example 60], 4.31.
`CC(c1ccccc1C(F)(F)F)N(C(=O)c1c(C(F)F)nn(C)c1F)C1CC1` (centres unmarked) [Example 66] registered a logP of 3.42.
Still for that read-out and setting: in the case of `Cn1nc(C(F)F)c(C(=S)N(Cc2ncc(C(F)(F)F)cc2Cl)C2CC2)c1F` [Example 7] it was 4.11.
The molecule `Cc1cc(Cl)c(CN(C(=O)c2c(C(F)F)nn(C)c2F)C2CC2)cc1C` [Example 79] registered a logP of 3.85.
Same read-out and setting: in the case of `Cn1nc(C(F)F)c(C(=O)N(Cc2cccc(-c3ccccc3)c2)C2CC2)c1Cl` [Example 67] it was 3.94; in that of `CC(c1cc(C(F)(F)F)ccc1Cl)N(C(=O)c1c(C(F)F)nn(C)c1F)C1CC1` (centres unmarked) [Example 96], 3.89.
`Cn1nc(C(F)F)c(C(=O)N(Cc2cc(Br)ccc2I)C2CC2)c1F` [Example 21] had a logP of 3.94.
The same measure, in the same setting: in the case of `CC(c1ccc(C(F)(F)c2ccccc2)cc1)N(C(=O)c1c(C(F)F)nn(C)c1F)C1CC1` (centres unmarked) [Example 77] it was 4.23.
Same read-out and setting: in the case of `Cn1nc(C(F)F)c(C(=O)N(Cc2ccccc2[Si](C)(C)C)C2CC2)c1Cl` [Example 37] it was 4.49.
The same measure, in the same setting: in the case of `Cn1nc(C(F)F)c(C(=O)N(C2CC2)C2CCOc3ccccc32)c1F` (centres unmarked) [Example 86] it was 2.84.
The molecule `Cc1cc(C)c2c(c1)C(N(C(=O)c1c(C(F)F)nn(C)c1F)C1CC1)CCC2` (centres unmarked) [Example 74] registered a logP of 4.25.
Still for that read-out and setting: the result for `Cn1nc(C(F)F)c(C(=O)N(Cc2ccccc2I)C2CC2)c1Cl` [Example 35] reads 3.6; that for `Cc1cc(Br)c(CN(C(=O)c2c(C(F)F)nn(C)c2F)C2CC2)cc1F` [Example 75], 3.73; that for `CC(c1ccccc1Br)N(C(=O)c1c(C(F)F)nn(C)c1F)C1CC1` (centres unmarked) [Example 98], 3.31.
As for `Cn1nc(C(F)F)c(C(=O)N(Cc2ccccc2C(C)(C)C)C2CC2)c1F` [Example 76], the logP is recorded as 4.06.

The values are drawn from US8772266B2, “Fungicide pyrazole carboxamides derivates” (Bayer Cropscience AG, priority 2009, dated 2014).
